Test results from ChEMBL document CHEMBL1201862, “PubChem BioAssay data set” (2004).
One block for each compound: values may come before it. Calls of active or inactive are those of the source.

Key:
Cytochrome P450 1A2 = target: T1, Cytochrome P450 1A2 (Homo sapiens, UniProt P05177);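 further: PubChem cytochrome P450 panel assay, CYP1A2 panel member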
T1 sequence (P05177 whole entry): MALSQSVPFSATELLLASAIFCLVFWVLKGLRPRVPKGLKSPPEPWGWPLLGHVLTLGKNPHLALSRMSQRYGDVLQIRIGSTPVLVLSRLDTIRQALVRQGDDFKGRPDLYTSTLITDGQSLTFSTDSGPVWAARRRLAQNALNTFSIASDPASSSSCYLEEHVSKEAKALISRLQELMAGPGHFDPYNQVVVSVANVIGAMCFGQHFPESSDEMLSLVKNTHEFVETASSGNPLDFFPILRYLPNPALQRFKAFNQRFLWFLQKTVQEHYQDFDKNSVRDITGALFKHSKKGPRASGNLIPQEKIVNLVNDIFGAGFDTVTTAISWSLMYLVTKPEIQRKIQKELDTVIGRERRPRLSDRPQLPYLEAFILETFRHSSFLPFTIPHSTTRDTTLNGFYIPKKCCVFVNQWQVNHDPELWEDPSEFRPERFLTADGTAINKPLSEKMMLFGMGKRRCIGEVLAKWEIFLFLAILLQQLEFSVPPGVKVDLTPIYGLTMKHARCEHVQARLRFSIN

Cytochrome P450 2C9 = Cytochrome P450 2C9 (Homo sapiens, UniProt P11712)
Chain of Cytochrome P450 2C9 (P11712 whole entry): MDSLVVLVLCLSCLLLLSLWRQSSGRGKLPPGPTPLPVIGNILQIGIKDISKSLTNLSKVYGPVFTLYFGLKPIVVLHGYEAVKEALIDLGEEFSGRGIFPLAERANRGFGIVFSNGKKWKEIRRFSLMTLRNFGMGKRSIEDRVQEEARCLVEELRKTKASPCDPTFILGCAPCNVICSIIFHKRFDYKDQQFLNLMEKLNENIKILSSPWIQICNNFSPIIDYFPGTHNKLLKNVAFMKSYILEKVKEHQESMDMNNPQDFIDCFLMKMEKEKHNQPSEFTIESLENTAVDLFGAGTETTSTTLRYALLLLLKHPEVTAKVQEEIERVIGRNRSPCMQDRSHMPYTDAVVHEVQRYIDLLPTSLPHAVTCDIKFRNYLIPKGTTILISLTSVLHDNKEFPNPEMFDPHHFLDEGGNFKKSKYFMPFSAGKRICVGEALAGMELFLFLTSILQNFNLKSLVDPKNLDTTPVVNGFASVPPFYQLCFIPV

[1] = target: T2, Corticotropin-releasing factor receptor 2/Corticotropin-releasing factor-binding protein (Homo sapiens, UniProt P24387+Q13324); assay: Dose Response confirmation of uHTS hits for small molecule antagonists of the CRF-binding protein and CRF-R2 receptor complex.; assay type: functional; details: read-out: IC50_Mean
T2 sequence (Q13324 whole entry): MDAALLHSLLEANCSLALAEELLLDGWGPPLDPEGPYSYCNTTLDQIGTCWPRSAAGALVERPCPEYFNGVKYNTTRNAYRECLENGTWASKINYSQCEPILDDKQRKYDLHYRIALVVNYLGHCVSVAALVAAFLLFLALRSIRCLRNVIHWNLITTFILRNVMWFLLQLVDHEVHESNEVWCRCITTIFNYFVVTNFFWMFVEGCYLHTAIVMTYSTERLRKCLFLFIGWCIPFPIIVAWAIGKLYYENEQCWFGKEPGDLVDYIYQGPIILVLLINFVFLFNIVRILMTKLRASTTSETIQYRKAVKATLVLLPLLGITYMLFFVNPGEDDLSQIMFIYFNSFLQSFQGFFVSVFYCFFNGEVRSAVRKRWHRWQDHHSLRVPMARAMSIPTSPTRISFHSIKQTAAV
T2 sequence (P24387 whole entry): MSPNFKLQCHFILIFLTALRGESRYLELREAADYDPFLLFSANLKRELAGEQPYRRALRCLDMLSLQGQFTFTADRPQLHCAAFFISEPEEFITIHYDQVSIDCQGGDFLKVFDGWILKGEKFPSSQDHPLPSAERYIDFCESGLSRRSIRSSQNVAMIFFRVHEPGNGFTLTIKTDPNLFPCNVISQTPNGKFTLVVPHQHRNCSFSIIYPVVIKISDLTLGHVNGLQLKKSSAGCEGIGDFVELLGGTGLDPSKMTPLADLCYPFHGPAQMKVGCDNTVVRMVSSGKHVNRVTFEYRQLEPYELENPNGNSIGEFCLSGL

[2] = target: T2, Corticotropin-releasing factor receptor 2/Corticotropin-releasing factor-binding protein; assay: activators of CRF receptor 2 with binding protein – uHTS hits, confirmation (AID 602473); assay type: functional; details: read-out: EC50_Mean
Cytochrome P450 2C19 = Cytochrome P450 2C19 (Homo sapiens, UniProt P33261); assay: Cytochrome panel assay with activity outcomes. Panel member name: p450-cyp2c19 Compounds with AC50 equal or less than 10 uM are considered active; assay type: functional
Chain of Cytochrome P450 2C19 (P33261 whole entry): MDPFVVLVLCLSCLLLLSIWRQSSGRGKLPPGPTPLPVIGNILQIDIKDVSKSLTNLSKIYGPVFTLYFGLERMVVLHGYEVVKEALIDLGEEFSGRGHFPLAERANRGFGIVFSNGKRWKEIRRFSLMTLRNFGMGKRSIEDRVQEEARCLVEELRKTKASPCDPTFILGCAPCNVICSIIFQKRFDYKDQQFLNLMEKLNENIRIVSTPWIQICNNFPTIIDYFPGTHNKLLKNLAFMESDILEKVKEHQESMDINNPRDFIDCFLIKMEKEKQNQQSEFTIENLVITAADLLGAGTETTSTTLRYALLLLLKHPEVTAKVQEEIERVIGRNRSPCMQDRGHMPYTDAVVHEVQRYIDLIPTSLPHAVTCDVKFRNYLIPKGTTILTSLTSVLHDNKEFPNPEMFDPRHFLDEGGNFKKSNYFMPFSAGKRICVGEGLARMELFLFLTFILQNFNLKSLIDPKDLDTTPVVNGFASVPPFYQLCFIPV

[3] = target: T3, Heat shock factor protein 1 (Mus musculus, UniProt P38532); assay: enhancement of HSF1-driven luciferase signal – cell-based, NIH3T3, luminescence, dose retest, confirmation (AID 435004); assay type: functional;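 further: stress induced by proteasome inhibitor MG132 added 30 min after compound; luciferase reporter driven by HSF1 response element in NIH3T3 cells; actives raise luminescence as potentiators of the MG132 stress response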
T3 sequence (P38532 whole entry): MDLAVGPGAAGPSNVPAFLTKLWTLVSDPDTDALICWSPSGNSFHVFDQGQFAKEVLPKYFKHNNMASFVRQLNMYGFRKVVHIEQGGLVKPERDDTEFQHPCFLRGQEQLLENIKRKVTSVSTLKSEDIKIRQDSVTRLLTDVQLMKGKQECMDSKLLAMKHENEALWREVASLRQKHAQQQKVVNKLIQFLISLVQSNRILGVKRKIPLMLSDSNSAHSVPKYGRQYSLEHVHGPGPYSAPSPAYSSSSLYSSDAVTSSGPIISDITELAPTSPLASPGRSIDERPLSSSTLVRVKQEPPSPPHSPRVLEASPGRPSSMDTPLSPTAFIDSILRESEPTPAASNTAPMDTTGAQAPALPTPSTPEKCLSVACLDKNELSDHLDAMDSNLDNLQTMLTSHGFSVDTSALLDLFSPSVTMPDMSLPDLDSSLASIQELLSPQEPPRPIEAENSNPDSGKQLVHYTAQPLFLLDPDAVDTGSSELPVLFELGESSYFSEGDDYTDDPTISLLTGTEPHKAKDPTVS

Cytochrome P450 2D6 = Cytochrome P450 2D6 (Homo sapiens, UniProt P10635);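 further: CYP2D6 member of a cytochrome P450 panel assay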
Chain of Cytochrome P450 2D6 (P10635 whole entry): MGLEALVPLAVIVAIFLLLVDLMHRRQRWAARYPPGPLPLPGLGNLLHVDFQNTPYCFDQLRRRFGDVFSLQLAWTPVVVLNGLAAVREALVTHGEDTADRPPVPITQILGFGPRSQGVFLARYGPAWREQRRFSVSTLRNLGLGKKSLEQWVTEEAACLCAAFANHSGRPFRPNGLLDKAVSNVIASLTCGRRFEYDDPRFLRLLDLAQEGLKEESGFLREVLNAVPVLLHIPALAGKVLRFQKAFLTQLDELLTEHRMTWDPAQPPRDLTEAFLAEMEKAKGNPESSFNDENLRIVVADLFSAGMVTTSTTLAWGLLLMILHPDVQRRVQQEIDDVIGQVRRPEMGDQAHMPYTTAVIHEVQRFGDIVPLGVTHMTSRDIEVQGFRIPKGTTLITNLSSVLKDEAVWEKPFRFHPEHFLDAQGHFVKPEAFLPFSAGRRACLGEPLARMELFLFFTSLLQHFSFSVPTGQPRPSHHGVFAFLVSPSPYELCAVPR

[4] = target: T4, Rac GTPase-activating protein 1 (Homo sapiens, UniProt Q9H0H5); assay: blockers of MgcRacGAP-driven Rac1 GTP hydrolysis – biochemical, ADP Hunter fluorescence, primary and confirmatory, confirmation (AID 624330); assay type: functional
T4 sequence (Q9H0H5 whole entry): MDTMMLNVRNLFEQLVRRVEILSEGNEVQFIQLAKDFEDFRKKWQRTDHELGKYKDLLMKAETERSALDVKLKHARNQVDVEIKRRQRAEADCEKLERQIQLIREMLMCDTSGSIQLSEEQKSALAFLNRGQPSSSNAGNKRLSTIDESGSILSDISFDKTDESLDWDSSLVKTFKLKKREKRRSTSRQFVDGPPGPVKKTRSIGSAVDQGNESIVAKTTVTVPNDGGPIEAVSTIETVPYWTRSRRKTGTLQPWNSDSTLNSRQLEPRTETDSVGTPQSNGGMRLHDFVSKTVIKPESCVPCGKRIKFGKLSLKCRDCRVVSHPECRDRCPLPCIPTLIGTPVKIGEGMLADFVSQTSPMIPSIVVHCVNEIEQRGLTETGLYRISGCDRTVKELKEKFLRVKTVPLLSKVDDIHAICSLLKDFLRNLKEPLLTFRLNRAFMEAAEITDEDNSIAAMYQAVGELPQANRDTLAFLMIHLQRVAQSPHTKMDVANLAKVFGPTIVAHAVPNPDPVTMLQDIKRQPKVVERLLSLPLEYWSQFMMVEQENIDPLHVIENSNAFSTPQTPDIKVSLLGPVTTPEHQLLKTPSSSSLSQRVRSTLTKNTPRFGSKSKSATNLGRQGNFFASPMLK

[5] = target: FAD-linked sulfhydryl oxidase ALR (Homo sapiens, UniProt P55789); assay: ALR-catalysed DTT oxidation blockers – biochemical, H2O2 detection, luminescence, cherry-pick, dose response (AID 493248)
Chain of FAD-linked sulfhydryl oxidase ALR (P55789 whole entry): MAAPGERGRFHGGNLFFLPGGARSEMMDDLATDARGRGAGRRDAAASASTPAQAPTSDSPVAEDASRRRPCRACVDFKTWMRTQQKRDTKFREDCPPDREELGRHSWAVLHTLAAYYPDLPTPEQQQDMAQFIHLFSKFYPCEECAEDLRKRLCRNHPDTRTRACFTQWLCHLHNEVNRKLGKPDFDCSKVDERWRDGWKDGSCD

SMILES: Clc1cccc(Oc2cnc3ccccc3n2)c1
AC50 (Cytochrome P450 2C9): 14.1 µM (inconclusive)

SMILES: Cn1c(=O)c(C(=O)NCc2ccccc2Cl)c(O)c2ccccc21
IC50 [1]: > 47.1 µM (inactive)
EC50 [2]: > 53 µM (inactive)

SMILES: CCOC(=O)Nc1ccc(C(=O)NCC2CCCO2)cc1 (stereo unspecified)
AC50 (Cytochrome P450 1A2): 39.8 µM (inconclusive)

SMILES: N=C1[C@@H](O)[C@]2(I)c3ccccc3N3C(=N)[C@H](O)[C@@H]4c5ccccc5N1[C@@H]4[C@@H]32
AC50 (Cytochrome P450 2D6): 6.31 µM (inconclusive)
AC50 (Cytochrome P450 2C9): 7.94 µM (inconclusive)

SMILES: COc1cc(=O)n2c(n1)SCCC2
AC50 (Cytochrome P450 2C9): 31.6 µM (inconclusive)

SMILES: C=CCn1c(Cc2c[nH]c3ccccc23)nnc1SCC(=O)NCc1ccccc1
AC50 (Cytochrome P450 1A2): 12.6 µM (inconclusive)

SMILES: Cc1ccc2[nH]c(Cc3ccc(N)cc3)nc2c1
AC50 (Cytochrome P450 2C9): 14.1 µM (inconclusive)

SMILES: CCOC(=O)C1CCN(C(=O)c2n[nH]c(=O)c3ccccc23)CC1
IC50 [1]: > 47.1 µM (inactive)
EC50 [2]: > 53 µM (inactive)

SMILES: C(=C/c1ccccc1)/CN1CCN(CCOC(c2ccccc2)c2ccccc2)CC1
AC50 (Cytochrome P450 1A2): 20 µM (inconclusive)

SMILES: COc1ccc2cc(OCC(=O)NNC(=O)Nc3ccc(F)cc3)ccc2c1
IC50 [4]: 65 µM (active)

SMILES: Fc1cccc(NC(S)=NCc2ccc(Cl)cc2)c1
IC50 [1]: > 47.1 µM (inactive)
EC50 [2]: > 53 µM (inactive)

SMILES: Cc1nn(C(C)C(=O)Nc2ccc(Cl)cn2)c(C)c1[N+](=O)[O-] (stereo unspecified)
AC50 (Cytochrome P450 1A2): 12.6 µM (inconclusive)

SMILES: CCn1c(SCC(=O)NC(=O)NCc2ccco2)nnc1-c1cccs1
AC50 (Cytochrome P450 2C9): 39.8 µM (inconclusive)

SMILES: COc1ccccc1CNc1ccnc(-c2c(C)noc2C)n1
AC50 (Cytochrome P450 2D6): 20 µM (inconclusive)
AC50 (Cytochrome P450 2C9): 0.501 µM (inconclusive)

SMILES: Cc1ccc(NNC(=O)c2ccno2)c(C)c1
EC50 [3]: > 260 µM (inactive)
AC50 [5]: 3.48 µM (active)

SMILES: c1ccc(-n2c(-c3ccncc3)nnc2-c2ccco2)cc1
IC50 [1]: > 47.1 µM (inactive)
EC50 [2]: > 53 µM (inactive)

SMILES: Cc1ncn(C23CC4CC(CC(C4)C2)C3)n1
IC50 [1]: > 47.1 µM (inactive)
EC50 [2]: > 53 µM (inactive)

SMILES: N#C/C(=C\c1ccc(Cl)cc1)c1nc2ccccc2o1
EC50 [3]: > 260 µM (inactive)

SMILES: N#Cc1ccc(CN2CC[C@@]3(CCCN(C(=O)Oc4ccccc4)C3)C2)cc1
AC50 (Cytochrome P450 1A2): 12.6 µM (inconclusive)

SMILES: NC1=NC(=O)/C(=C/c2cn(Cc3ccccc3)c3ccccc23)S1
EC50 [3]: > 260 µM (inactive)

SMILES: COc1ccc(-c2csc(NC(=O)CN3C(=O)C4CC=CCC4C3=O)n2)cc1OC (stereo unspecified)
IC50 [1]: > 47.1 µM (inactive)
EC50 [2]: > 53 µM (inactive)

SMILES: COC(=O)CC1SC(=O)NC1=Nc1ccc(OC)cc1 (stereo unspecified)
IC50 [1]: > 47.1 µM (inactive)
EC50 [2]: > 53 µM (inactive)

SMILES: O=[N+]([O-])c1ccc(Nc2nc(N/N=C\c3ccc4c(c3)OCO4)nc(N3CCCCC3)n2)cc1
AC50 (Cytochrome P450 2C9): 8.91 µM (inconclusive)
AC50 (Cytochrome P450 1A2): 8.91 µM (inconclusive)

SMILES: O=C1/C(=N\O)Cc2ccccc21
AC50 (Cytochrome P450 2C19; read-out: AC50): 39.8 µM (inconclusive)
AC50 (Cytochrome P450 1A2): 14.1 µM (inconclusive)

SMILES: O=C(N/N=C/c1ccc(O)cc1)c1csc2c1CCCC2
IC50 [4]: 51.6 µM (active)

SMILES: O=[N+]([O-])c1cc(O)c(O)c([N+](=O)[O-])c1 [3,5-DINITROCATECHOL (OR-486)]
AC50 (Cytochrome P450 1A2): 39.8 µM (inconclusive)

Now from value to compound:

AC50 (Cytochrome P450 1A2): 31.6 µM (inconclusive)
SMILES: C[C@@H](CC(=O)O)[C@@H](N)C(=O)O

IC50 [1]: > 47.1 µM (inactive)
EC50 [2]: > 53 µM (inactive)
SMILES: CCn1cc(C2=NOC(C(=O)Nc3ccccc3C(=O)OC)C2)c(C)n1 (stereo unspecified)

AC50 (Cytochrome P450 2C19; read-out: AC50): 39.8 µM (inconclusive)
AC50 (Cytochrome P450 2C9): 5.01 µM (inconclusive)
SMILES: CCCS(=O)(=O)N1CCCC(C(=O)NCCCN2CCN(c3ccccc3F)CC2)C1 (stereo unspecified)

EC50 [3]: > 260 µM (inactive)
SMILES: CC1CCCCN1C(=O)COc1ccccc1F (stereo unspecified)

AC50 (Cytochrome P450 2C19): inconclusive
AC50 (Cytochrome P450 1A2): 39.8 µM (inconclusive)
SMILES: Cc1cc(NC(=O)c2c([N+](=O)[O-])c(C)nn2C)no1

AC50 (Cytochrome P450 2C19; read-out: AC50): 5.62 µM (inconclusive)
AC50 (Cytochrome P450 1A2): 17.8 µM (inconclusive)
SMILES: CCN=C(S)NNC(=O)c1cccc(Br)c1

IC50 [1]: > 47.1 µM (inactive)
EC50 [2]: > 53 µM (inactive)
SMILES: NS(=O)(=O)c1ccc(NC(=O)CSc2nnc(COc3ccccc3Cl)n2C2CC2)cc1

AC50 (Cytochrome P450 2C19; read-out: AC50): 31.6 µM (inconclusive)
AC50 (Cytochrome P450 2C9): 22.4 µM (inconclusive)
SMILES: Oc1c2c(nc3c(-c4ccccc4)cnn13)CCC2

IC50 [1]: > 47.1 µM (inactive)
EC50 [2]: > 53 µM (inactive)
SMILES: O=C1C2C3C=CC(C3)C2C(=O)N1CCCO (stereo unspecified)

AC50 (Cytochrome P450 2C19): inconclusive
AC50 (Cytochrome P450 1A2): 15.8 µM (inconclusive)
SMILES: CN1CCN(c2ncc3nc(-c4ccc(Cl)cc4)c(=O)n(CCC#N)c3n2)CC1

IC50 [4]: 29.1 µM (active)
SMILES: C=CCn1c(SCC(C)=O)nnc1-c1cc(-c2ccccc2)sc1N

AC50 (Cytochrome P450 2C9): 3.16 µM (inconclusive)
AC50 (Cytochrome P450 1A2): 5.01 µM (inconclusive)
SMILES: Cc1ccc(/N=N\c2c(O)ccc3cc(S(=O)(=O)O)ccc23)cc1

IC50 [1]: > 47.1 µM (inactive)
EC50 [2]: > 53 µM (inactive)
SMILES: Cc1onc(-c2ccccc2Cl)c1C(=O)NCc1ccc(N2CCCC2=O)cc1
